Measurements from paper PMC12073635, “Synthesis of Tricyclic and Tetracyclic Lactone Derivatives of Thieno[2,3-b]pyrazine or Thieno[2,3-b]quinoline: Preliminary Antitumor and Antiparasitic Activity Evaluation” (Molecules, 2025).

What was measured:
[1] = tested on: HeLa (cervical carcinoma) cells; assay: SRB cell growth inhibition assay, HeLa; format: cell-based; settings: Homo sapiens, 72 h, mean ± standard deviation
Protocol: (§1) The antitumor potential of the Sonogashira coupling products 2, tricyclic lactones 3 and 5, and tetracyclic lactones 7 was evaluated using the sulforhodamine B (SRB) assay against five human tumor cell lines: colorectal adenocarcinoma (CaCo-2), breast adenocarcinoma (MCF-7), gastric adenocarcinoma (AGS), cervical carcinoma (HeLa), and non-small cell lung cancer (NCI-H460). A primary pig liver cell culture (PLP2) was used to assess the toxicity of compounds.
(§2) The human tumor cell lines used were CaCo-2 (colorectal adenocarcinoma), MCF-7 (breast adenocarcinoma), AGS (gastric adenocarcinoma), HeLa (cervical carcinoma), NCI-H460 (lung carcinoma). Non-tumor cell lines were also tested: PLP2 (primary pig liver culture). All the cell lines were maintained in RPMI-1640 medium supplemented with 10% fetal bovine serum, glutamine (2 mM), penicillin (100 U/mL), and streptomycin ([…]), with the exception of PLP2, which was maintained in DMEM medium supplemented with fetal bovine serum (10%), glutamine and antibiotics. The culture flasks were incubated at 37 °C and with 5% CO2, under a humid atmosphere. The cells were used only when they had 70 to 80% confluence. A known mass of each compound was dissolved in DMSO/H2O (1:1, 1 mL), in order to obtain the stock solutions with a concentration of 1 mM. […] Each compound concentration (10 μL) was incubated with the cell suspension (190 μL) of the cell lines tested in 96-well microplates for 72 h. The microplates were incubated at 37 °C and with 5% CO2 in a humid atmosphere after checking the adherence of the cells. All cell lines were tested at a concentration of 10,000 cells/well. After the incubation period, the cells were treated: TCA (10% w/v; 100 μL) was previously cooled, and plates were incubated for 1 h at 4 °C, washed with water, and, after drying, a SRB solution (0.057%, m/v; 100 μL) was added and left to stand at room temperature for 30 min. To remove non-adhered SRB, plates were washed three times with a solution of acetic acid (1% v/v) and placed to dry. Finally, an adhered SRB was solubilized with Tris (10 mM, 200 μL) and the absorbance at a wavelength of 540 nm was read in the Biotek ELX800 microplate reader. The results obtained by the SRB assay were expressed regarding the concentration compounds that can inhibit cell growth by 50%—GI50. Doxorubicin was used as a positive control.

[2] = tested on: AGS (gastric adenocarcinoma) cells; assay: SRB cell growth inhibition assay, AGS; format: cell-based; settings: Homo sapiens, 72 h, mean ± standard deviation
Protocol: as §1, §2

[3] = tested on: T. brucei Lister 427 bloodstream forms; assay: Resazurin-based anti-T. brucei assay; format: cell-based, Trypanosoma brucei; settings: 72 h, dose-response; for IC50: Trypanosoma brucei
Protocol: The antiparasitic activity of compounds 2c–g, 3a, 5a and 7 was evaluated at a single concentration of 20 μM, against Trypanosoma brucei (T. brucei) and Leishmania infantum (L. infantum) promastigotes. The results are shown in Table 9 together with the cytotoxicity data (CC50) in THP-1–derived macrophages cells.
T. brucei Lister 427 bloodstream forms were grown in a humidified incubator at 37 °C, 5% CO2 in complete HMI-9 medium 1 supplemented with 10% heat-inactivated Fetal Bovine Serum (FBS) and 100 UI/mL penicillin/streptomycin. Parasites maintenance was performed in T25 ventilated flasks by subpassage at a concentration of 1 × 10^4/mL every 2 days on T25 ventilated flasks.
The efficacy of compounds against T. brucei bloodstream forms was evaluated using a modified resazurin-based assay previously described in the literature. Parasites were added to 100 µL of serial dilutions of compounds in supplemented complete medium at a cell density of 5 × 10^3/mL for. As a quality control, a dose–response curve for the antitrypanosomal pentamidine was included in all the assays. The final volume of the assay is 200 µL/well. Each condition was carried out in duplicate. Following 72 h incubation at the specific conditions for T. brucei, 20 µL of a 0.5 mM resazurin solution was added and plates were incubated for a further 4 h under the same conditions. Fluorescence was measured at 544 nm and 590 nm excitation and emission wavelength, respectively, using a Synergy 2 Multi-Mode Reader (Biotek, Winooski, VT, USA). Results were shown as % of parasite growth inhibition compared to control (untreated parasites) and represent the average of at least three independent experiments. The effect was evaluated by the determination of the IC50 value (concentration required to inhibit growth in 50%) and calculated by non-linear regression curves using GraphPad Prism version 8.1.1 for Windows (GraphPad Software, San Diego CA, USA).

[4] = tested on: NCI-H460 (non-small cell lung cancer) cells; assay: SRB cell growth inhibition assay, NCI-H460; format: cell-based; settings: Homo sapiens, 72 h, mean ± standard deviation
Protocol: as §1, §2

[5] = tested on: MCF-7 (breast adenocarcinoma) cells; assay: SRB cell growth inhibition assay, MCF-7; format: cell-based, human; settings: mean ± standard deviation
Protocol: as §1, §2

[6] = tested on: CaCo-2 (colorectal adenocarcinoma) cells; assay: SRB cell growth inhibition assay, CaCo-2; format: cell-based, human; settings: mean ± standard deviation
Protocol: as §1, §2

[7] = tested on: five human tumor cell lines (CaCo-2, MCF-7, AGS, HeLa, NCI-H460); assay: SRB assay, statements over the five human tumor cell lines; format: cell-based; settings: text statement over CaCo-2, MCF-7, AGS, read-out: GI50 in all tested human tumor cell lines
Protocol: as §1
The human tumor cell lines used were CaCo-2 (colorectal adenocarcinoma), MCF-7 (breast adenocarcinoma), AGS (gastric adenocarcinoma), HeLa (cervical carcinoma), NCI-H460 (lung carcinoma). Non-tumor cell lines were also tested: PLP2 (primary pig liver culture). All the cell lines were maintained in RPMI-1640 medium supplemented with 10% fetal bovine serum, glutamine (2 mM), penicillin (100 U/mL), and streptomycin ([…]), with the exception of PLP2, which was maintained in DMEM medium supplemented with fetal bovine serum (10%), glutamine and antibiotics. The culture flasks were incubated at 37 °C and with 5% CO2, under a humid atmosphere. The cells were used only when they had 70 to 80% confluence. […] Finally, an adhered SRB was solubilized with Tris (10 mM, 200 μL) and the absorbance at a wavelength of 540 nm was read in the Biotek ELX800 microplate reader. […]

Structure (SMILES)	GI50 [1]	GI50 [2]	T. brucei IC50 [3]	IC50 [3]	GI50 [4]	GI50 ([5]; 72 h)	GI50 ([5]; Homo sapiens, MCF7, 72 h)	GI50 ([6]; 72 h)	GI50 ([6]; Homo sapiens, Caco-2, 72 h)	GI50 [7]
COC(=O)c1sc2nccnc2c1C#Cc1ccccn1 [Compound 2f, Methyl 7-(pyridin-2-ylethynyl)thieno[2,3-b]pyrazine-6-carboxylate]	5.44 ± 4.31 µM	9.25 ± 0.61 µM	low μM range	6.43 µM	9.33 ± 4.21 µM	4.08 ± 0.27 µM	< 5 µM	3.72 ± 2.42 µM	< 5 µM	< 10 µM
O=c1oc(-c2ccccn2)cc2c1sc1nccnc12 [Compound 3f, 8-(Pyridin-2-yl)-6H-pyrano[4′,3′:4,5]thieno[2,3-b]pyrazin-6-one]	58.8 ± 2.44 µM	42.6 ± 3.96 µM	–	< 11 µM	61.2 ± 4.17 µM	–	59.3 ± 2.45 µM	–	58.8 ± 2.44 µM	< 10 µM
